Patent publication US10653747B2, “ApoE mimetic peptides and higher potency to clear plasma cholesterol” (UAB RESEARCH FOUNDATION, priority 2014, dated 2020)
Ahx = NCCCCCC(=O)O

Legend:
plasma cholesterol = test: Plasma cholesterol reduction in apoE null mice after a single dose; format: in vivo; details: single dose in saline vehicle, at both 50 and 100 μg/mouse
Method: The study was carried out in apoE null mice (n=4 animals/group). The time points show the plasma cholesterol levels at the indicated times following a single dose administration. A single dose was administered using a saline vehicle.

VLDL = test: Interaction of peptide with VLDL, displacement of apo E from VLDL
Method: It was determined that in MEF 1 cells with induced LDL receptors, LDL internalization was enhanced three, five and seven times by Ac-mE-18A-NH2, Ac-hE-18A-NH2, and Ac-hE(R)-18A-NH2 respectively. All three peptides increased degradation of LDL by 100 percent. […] However, only Ac-hE-18A-NH2-associated VLDL enhanced the uptake of VLDL six fold and degradation three fold compared to VLDL alone in spite of the absence of apoE. The LDL binding to fibroblasts in the presence of these peptides was not saturable, however, over the LDL concentration range studied.

[1] = system: MEF 1 cells with induced LDL receptors; test: Uptake and degradation of human LDL by cells (LDL internalization, LDL degradation); format: cell-based
Source text: (§1) To test the hypothesis that a minimal arginine-rich Apo E receptor binding domain (141-150) was sufficient to enhance low density lipoprotein (LDL) and very low density lipoprotein (VLDL) uptake and clearance when covalently linked to a class A amphipathic helix, a peptide was synthesized in which the receptor binding domain of human Apo E, LRKLRKRLLR (SEQ ID NO:4) (hApo E[141-150] also referred to as “hE”), was linked to 18A, a well characterized high affinity lipid-associating peptide (DWLKAFYDKVAEKLKEAF (SEQ ID NO:5), also referred to as “18A”) to produce a peptide denoted as hApo E[141-150]-18A (also referred to as “hE-18A”) (see U.S. Pat. No. 6,506,880, which is hereby incorporated by reference in its entirety for its teaching of specific Apo E mimetics and their uses). Also synthesized was an end protected analog of hE-18A, denoted Ac-hE18A-NH2. […] The effect of the dual character peptides on the uptake and degradation of human LDL/VLDL by cells was then determined.
(§2) It was determined that in MEF 1 cells with induced LDL receptors, LDL internalization was enhanced three, five and seven times by Ac-mE-18A-NH2, Ac-hE-18A-NH2, and Ac-hE(R)-18A-NH2 respectively. […]

cells = test: Uptake and degradation of peptide-associated VLDL by cells; format: cell-based; details: peptide-associated VLDL compared to VLDL alone, in the absence of apoE
Source text: as §1, §2

Substance	reducing plasma cholesterol (plasma cholesterol)	displacement of apo E from VLDL (VLDL)	LDL internalization enhanced [1]	increased degradation of LDL [1]	enhanced degradation of VLDL (cells)	enhanced uptake of VLDL (cells)
Ac-Aha-LRRLRRRLLR-DWLKAFYDKVAEKLKEAF-NH2 ({Ac-Ahx}-LRRLRRRLLRDWLKAFYDKVAEKLKEAF-NH2; SMILES CC(=O)NCCCCCC(=O)N[C@@H](CC(C)C)C(=O)N[C@@H](CCCNC(=N)N)C(=O)N[C@@H](CCCNC(=N)N)C(=O)N[C@@H](CC(C)C)C(=O)N[C@@H](CCCNC(=N)N)C(=O)N[C@@H](CCCNC(=N)N)C(=O)N[C@@H](CCCNC(=N)N)C(=O)N[C@@H](CC(C)C)C(=O)N[C@@H](CC(C)C)C(=O)N[C@@H](CCCNC(=N)N)C(=O)N[C@@H](CC(=O)O)C(=O)N[C@@H](Cc1c[nH]c2ccccc12)C(=O)N[C@@H](CC(C)C)C(=O)N[C@@H](CCCCN)C(=O)N[C@@H](C)C(=O)N[C@@H](Cc1ccccc1)C(=O)N[C@@H](Cc1ccc(O)cc1)C(=O)N[C@@H](CC(=O)O)C(=O)N[C@@H](CCCCN)C(=O)N[C@H](C(=O)N[C@@H](C)C(=O)N[C@@H](CCC(=O)O)C(=O)N[C@@H](CCCCN)C(=O)N[C@@H](CC(C)C)C(=O)N[C@@H](CCCCN)C(=O)N[C@@H](CCC(=O)O)C(=O)N[C@@H](C)C(=O)N[C@@H](Cc1ccccc1)C(N)=O)C(C)C) [AC-Aha-[R]hE18A-NH2]	highly effective	–	–	–	–	–
Ac-D-W-L-K-A-F-Y-D-K-V-A-E-K-L-K-E-A-F-NH2 (Ac-DWLKAFYDKVAEKLKEAF-NH2) [Ac-18A-NH2, control peptide; 18A is the lipid-associating peptide …, reference compound]	–	interacted with VLDL to cause a displacement of apo E from VLDL	–	–	–	–
Ac-LRKLRKRLLRDWLKAFYDKVAEKLKEAF-NH2 [Ac-hE-18A-NH2]	–	interacted with VLDL to cause a displacement of apo E from VLDL	five	100%	three	six
